Reference: patent publication US20140161720A1, “TREATMENT OF ANGIOGENIC- OR VASCULAR-ASSOCIATED DISEASES” (THE GENERAL HOSPITAL CORPORATION, priority 2011, published 2014)
Entries after “also recorded” stand apart in the source; their conditions may differ.

Legend:
PI3K-gamma = PI3K-gamma (Homo sapiens, UniProt P48736); test: Kinase inhibition screening; format: biochemical; conditions: 10-dose, starting at 100 μM, 1 μM ATP
Method: (§1) To determine kinase activity of DAL, various kinases (AKT1, AKT2, AKT3, PKA, PKC alpha, PKC delta, PAK1, EPHB2, EPHB4, p38 alpha, PI3K-alpha, PI3K-beta, PI3K-gamma, PI3K-delta) were screened in a 10-dose IC50 mode with threefold serial dilutions starting at 100 μM. Staurosporine was used as a control starting at 10 μM and the reactions were carried out at 1 μM ATP.
(§2) Without wishing to be bound by theory, DAL brings about its antivascular effects by destabilizing cell adhesion through the actin cytoskeleton. It was next sought to identify which specific adhesion pathway it targets. Mechanical attachment at cell-cell adherens and tight junctions is regulated by dynamic changes in the actin cytoskeleton. Adherens junctions are composed of E-cadherin/β-catenin complexes and are connected to the actin cytoskeleton via sa-catenin (25-26), while tight junctions consist of transmembrane claudins and occludin and are associated with the actin cytoskeleton via ZO proteins (27-28). Therefore, potential targets of DAL in signaling pathways involved in actin remodeling were evaluated. […] Then, it was sought to determine whether Rho-GTPase family members are targets for DAL due to the disruption of cell adhesion and actin network remodeling along with inhibited motility. Rho-GTPases (e.g., Rac1) plays an important role in actin cytoskeletal organization and is involved in the coordination of cell adhesion (29). Furthermore, Rac1 is responsible for stabilizing endothelial cell junctions by opposing actin remodeling by Rho (30). In order to migrate, cancer cells employ dynamic remodeling of the actin cytoskeleton, form protrusive structures and generate forces necessary to produce cell translocation in the process regulated by Rho-GTPase Rac1. To assess whether DAL can modulate Rac1, RhoA, and Cdc42 activities, affinity purification assays were employed to monitor RhoA and Cdc42/Rac1 activity. The Rho-Binding Domain (RBD) of the Rho effector protein rhotekin and the p21 Binding Domain (PBD) of the Cdc42/Rac effector protein p21 activated kinase 1 (PAK) were applied to pull down active forms of each protein.

EPHB4 = EPHB4 (Homo sapiens, UniProt P54760); test: Kinase inhibition screening; format: biochemical; conditions: 10-dose, starting at 100 μM, 1 μM ATP
Method: as §1, §2

PKA = PKA (Homo sapiens, UniProt P17612); test: Kinase inhibition screening; format: biochemical; conditions: 10-dose, starting at 100 μM, 1 μM ATP
Method: as §1, §2

PI3K-beta = PI3K-beta (Homo sapiens, UniProt P42338); test: Kinase inhibition screening; format: biochemical; conditions: 10-dose, starting at 100 μM, 1 μM ATP
Method: as §1, §2

PAK1 = PAK1 (Homo sapiens, UniProt Q13153); test: Kinase inhibition screening; format: biochemical; conditions: 10-dose, starting at 100 μM, 1 μM ATP
Method: as §1, §2

PKC delta = PKC delta (Homo sapiens, UniProt Q05655); test: Kinase inhibition screening; format: biochemical; conditions: 10-dose, starting at 100 μM, 1 μM ATP
Method: as §1, §2

PI3K-delta = PI3K-delta (Homo sapiens, UniProt O00329); test: Kinase inhibition screening; format: biochemical; conditions: 10-dose, starting at 100 μM, 1 μM ATP
Method: as §1, §2

AKT3 = AKT3 (Homo sapiens, UniProt Q9Y243); test: Kinase inhibition screening; format: biochemical; conditions: 10-dose, starting at 100 μM, 1 μM ATP
Method: as §1, §2

PI3K-alpha = PI3K-alpha (Homo sapiens, UniProt P42336); test: Kinase inhibition screening; format: biochemical; conditions: 10-dose, starting at 100 μM, 1 μM ATP
Method: as §1, §2

AKT2 = AKT2 (Homo sapiens, UniProt P31751); test: Kinase inhibition screening; format: biochemical; conditions: 10-dose, starting at 100 μM, 1 μM ATP
Method: as §1, §2

p38 alpha = p38 alpha (Homo sapiens, UniProt Q16539); test: Kinase inhibition screening; format: biochemical; conditions: 10-dose, starting at 100 μM, 1 μM ATP
Method: as §1, §2

MDA-MB-231 cells = test: High-throughput cell adhesion screen (cells remaining attached); format: cell-based, human; conditions: FIG. 1C
Method: A cell-based readout system was used for compound selection. For the cell-based screening, an optimal cell density of 10,000 breast cancer MDA-MB-231 cells/well was selected to produce the most prominent signal. The plated cells were incubated with each library compound, washed with PBS, and the Cell Titer-Glo (Promega) reagent was used to detect the number of cells remaining attached in each well. This ATP-based detection has a linear relationship between the luminescent signal and the number of cells per well. Of the 50,000 compounds screened, 86 library compounds (0.172% of screened compounds) were selected at 1.67 μM concentration for the second screening step. […] As a further test of toxicity, DAL was injected intraperitoneally at 100 mg/kg in SCID mice and signs of toxicity including cachexia, ruffled fur, diarrhea, anorexia, skin ulceration, and toxic death were monitored.
A screening strategy was developed to identify potential agents that target adhesion of endothelial cells or cancer cells to their substrate. […] The initial screening step quantified the number of cells remaining attached to their wells following incubation with each compound and subsequent washing steps. […] The agents that affect cell adhesion can be monitored through remodeling of actin filaments. […] Changes in actin assembly and cell shape after treatment with 12 compounds were determined. […]

HUVEC = test: Scratch wound-healing motility assay; format: cell-based, human; conditions: HUVEC monolayer, DAL 5 μM, 24 hours after wounding
Method: For F-actin visualization, HUVECs were plated and treated with saline or DAL (10 μM) for three hours. After fixing and permeabilizing these cultured cells, the cells were subsequently stained with phalloidin. […] Existing cordlike structures, when exposed to 10 μM of DAL for 3 hours, were also disrupted. […] HUVEC monolayers were disrupted mechanically with a pipette tip and the migration of cells to “heal” the wound was monitored using microscopy.
To assess whether DAL affects EC functions, in vitro models of vascular network formation from HUVECs were used. After overnight cultivation in matrigel, HUVECs spontaneously assemble into cord-like structures that resemble vascular networks. […] Since DAL affects actin cytoskeleton assembly, the effect of DAL on cell motility was next assessed. A scratch wound assay was utilized to study HUVEC motility based on the healing rate of a wounded monolayer.

AKT2, sequence (P31751 whole entry, species assumed): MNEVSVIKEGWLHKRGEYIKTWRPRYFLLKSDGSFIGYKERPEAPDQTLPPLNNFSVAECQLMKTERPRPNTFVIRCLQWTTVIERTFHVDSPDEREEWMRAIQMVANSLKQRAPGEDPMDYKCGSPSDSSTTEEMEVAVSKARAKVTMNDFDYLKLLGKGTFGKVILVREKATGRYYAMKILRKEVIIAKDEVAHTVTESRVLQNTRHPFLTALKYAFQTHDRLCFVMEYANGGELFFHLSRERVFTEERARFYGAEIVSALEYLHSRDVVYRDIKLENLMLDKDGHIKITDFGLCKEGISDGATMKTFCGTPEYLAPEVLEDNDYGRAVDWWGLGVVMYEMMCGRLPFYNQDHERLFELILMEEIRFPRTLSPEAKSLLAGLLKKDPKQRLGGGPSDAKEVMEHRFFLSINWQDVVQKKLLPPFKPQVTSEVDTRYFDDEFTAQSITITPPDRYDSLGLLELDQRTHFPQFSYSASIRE
PI3K-gamma, sequence (P48736 whole entry, species assumed): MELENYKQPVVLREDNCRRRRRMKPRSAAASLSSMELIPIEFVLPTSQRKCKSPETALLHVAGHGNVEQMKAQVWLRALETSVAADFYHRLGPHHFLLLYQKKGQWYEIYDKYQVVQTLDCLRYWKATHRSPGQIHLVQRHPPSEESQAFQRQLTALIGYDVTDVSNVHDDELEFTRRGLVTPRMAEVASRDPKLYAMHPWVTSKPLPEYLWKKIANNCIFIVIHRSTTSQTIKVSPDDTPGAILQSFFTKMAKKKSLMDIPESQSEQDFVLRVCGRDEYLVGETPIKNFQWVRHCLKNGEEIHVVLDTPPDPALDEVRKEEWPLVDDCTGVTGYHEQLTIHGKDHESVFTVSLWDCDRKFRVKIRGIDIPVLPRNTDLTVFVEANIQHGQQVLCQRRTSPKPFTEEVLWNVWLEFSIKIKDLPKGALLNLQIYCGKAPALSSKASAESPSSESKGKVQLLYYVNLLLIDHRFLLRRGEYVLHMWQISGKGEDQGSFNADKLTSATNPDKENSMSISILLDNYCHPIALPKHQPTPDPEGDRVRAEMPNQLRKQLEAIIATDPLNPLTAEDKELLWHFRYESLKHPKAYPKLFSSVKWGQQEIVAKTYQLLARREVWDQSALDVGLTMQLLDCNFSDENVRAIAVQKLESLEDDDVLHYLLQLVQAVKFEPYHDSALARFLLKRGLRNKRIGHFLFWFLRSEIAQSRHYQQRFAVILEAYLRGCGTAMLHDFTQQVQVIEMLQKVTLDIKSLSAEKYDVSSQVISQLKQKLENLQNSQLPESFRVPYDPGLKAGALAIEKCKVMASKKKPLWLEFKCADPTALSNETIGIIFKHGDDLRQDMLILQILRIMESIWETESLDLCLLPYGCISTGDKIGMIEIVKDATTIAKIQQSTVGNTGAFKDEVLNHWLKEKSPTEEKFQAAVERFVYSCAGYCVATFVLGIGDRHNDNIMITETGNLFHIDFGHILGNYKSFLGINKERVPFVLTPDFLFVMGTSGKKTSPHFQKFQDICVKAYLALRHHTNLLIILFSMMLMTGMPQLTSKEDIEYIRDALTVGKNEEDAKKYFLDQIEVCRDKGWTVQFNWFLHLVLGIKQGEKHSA
p38 alpha, sequence (Q16539 whole entry): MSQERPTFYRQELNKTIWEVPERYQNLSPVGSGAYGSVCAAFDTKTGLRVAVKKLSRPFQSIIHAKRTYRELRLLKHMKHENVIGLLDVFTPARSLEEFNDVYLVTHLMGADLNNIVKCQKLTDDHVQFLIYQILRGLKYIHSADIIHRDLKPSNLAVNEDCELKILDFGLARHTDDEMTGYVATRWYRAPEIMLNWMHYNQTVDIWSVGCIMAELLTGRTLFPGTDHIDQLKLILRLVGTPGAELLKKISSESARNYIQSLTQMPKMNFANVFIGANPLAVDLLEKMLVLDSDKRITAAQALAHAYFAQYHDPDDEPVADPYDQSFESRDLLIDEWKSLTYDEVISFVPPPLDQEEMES
PI3K-delta, sequence (O00329 whole entry, species assumed): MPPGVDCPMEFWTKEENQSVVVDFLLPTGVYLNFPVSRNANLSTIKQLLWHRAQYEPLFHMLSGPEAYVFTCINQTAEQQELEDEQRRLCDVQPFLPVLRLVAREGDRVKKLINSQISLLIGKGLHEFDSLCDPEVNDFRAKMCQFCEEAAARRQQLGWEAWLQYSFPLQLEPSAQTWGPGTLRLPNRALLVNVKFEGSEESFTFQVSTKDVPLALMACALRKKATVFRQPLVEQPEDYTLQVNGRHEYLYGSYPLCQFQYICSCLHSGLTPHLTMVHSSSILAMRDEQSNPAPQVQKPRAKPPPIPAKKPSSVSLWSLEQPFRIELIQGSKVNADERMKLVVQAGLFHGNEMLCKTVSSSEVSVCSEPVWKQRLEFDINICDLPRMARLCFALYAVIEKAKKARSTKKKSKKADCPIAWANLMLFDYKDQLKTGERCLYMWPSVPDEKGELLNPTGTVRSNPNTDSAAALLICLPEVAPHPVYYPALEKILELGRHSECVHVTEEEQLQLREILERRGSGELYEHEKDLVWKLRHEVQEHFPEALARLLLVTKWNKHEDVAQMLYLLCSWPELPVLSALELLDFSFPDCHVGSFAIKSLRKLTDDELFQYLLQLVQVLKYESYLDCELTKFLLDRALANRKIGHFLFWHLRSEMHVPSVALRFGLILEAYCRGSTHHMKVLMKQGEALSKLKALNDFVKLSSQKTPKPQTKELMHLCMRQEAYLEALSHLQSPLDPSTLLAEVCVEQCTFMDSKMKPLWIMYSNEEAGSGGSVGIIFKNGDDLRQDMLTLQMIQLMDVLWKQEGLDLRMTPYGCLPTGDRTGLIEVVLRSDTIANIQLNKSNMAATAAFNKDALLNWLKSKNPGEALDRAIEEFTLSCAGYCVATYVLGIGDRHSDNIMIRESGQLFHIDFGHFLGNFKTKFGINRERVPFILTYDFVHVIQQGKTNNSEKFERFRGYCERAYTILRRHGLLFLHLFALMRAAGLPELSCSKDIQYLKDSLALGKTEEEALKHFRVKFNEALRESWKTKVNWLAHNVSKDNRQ
PI3K-delta, sequence (P27986 whole entry partner, species assumed): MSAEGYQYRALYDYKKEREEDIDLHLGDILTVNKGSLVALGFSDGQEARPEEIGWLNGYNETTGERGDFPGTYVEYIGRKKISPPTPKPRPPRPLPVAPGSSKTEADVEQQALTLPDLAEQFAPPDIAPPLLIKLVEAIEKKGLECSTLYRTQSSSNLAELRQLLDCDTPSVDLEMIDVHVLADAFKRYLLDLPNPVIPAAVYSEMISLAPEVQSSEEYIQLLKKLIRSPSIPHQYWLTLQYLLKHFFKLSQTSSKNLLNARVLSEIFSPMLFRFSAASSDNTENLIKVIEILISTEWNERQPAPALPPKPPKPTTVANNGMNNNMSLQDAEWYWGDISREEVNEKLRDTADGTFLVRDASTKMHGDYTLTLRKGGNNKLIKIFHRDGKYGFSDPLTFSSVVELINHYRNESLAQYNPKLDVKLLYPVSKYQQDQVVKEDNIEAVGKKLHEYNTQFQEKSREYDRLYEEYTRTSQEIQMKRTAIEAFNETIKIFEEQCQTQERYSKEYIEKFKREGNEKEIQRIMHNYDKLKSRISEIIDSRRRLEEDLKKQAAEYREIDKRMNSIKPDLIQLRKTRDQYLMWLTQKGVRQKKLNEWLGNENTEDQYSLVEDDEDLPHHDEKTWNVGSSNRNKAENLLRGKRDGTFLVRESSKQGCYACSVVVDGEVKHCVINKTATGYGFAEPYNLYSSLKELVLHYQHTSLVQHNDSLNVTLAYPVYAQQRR
PI3K-beta, sequence (P42338 whole entry, species assumed): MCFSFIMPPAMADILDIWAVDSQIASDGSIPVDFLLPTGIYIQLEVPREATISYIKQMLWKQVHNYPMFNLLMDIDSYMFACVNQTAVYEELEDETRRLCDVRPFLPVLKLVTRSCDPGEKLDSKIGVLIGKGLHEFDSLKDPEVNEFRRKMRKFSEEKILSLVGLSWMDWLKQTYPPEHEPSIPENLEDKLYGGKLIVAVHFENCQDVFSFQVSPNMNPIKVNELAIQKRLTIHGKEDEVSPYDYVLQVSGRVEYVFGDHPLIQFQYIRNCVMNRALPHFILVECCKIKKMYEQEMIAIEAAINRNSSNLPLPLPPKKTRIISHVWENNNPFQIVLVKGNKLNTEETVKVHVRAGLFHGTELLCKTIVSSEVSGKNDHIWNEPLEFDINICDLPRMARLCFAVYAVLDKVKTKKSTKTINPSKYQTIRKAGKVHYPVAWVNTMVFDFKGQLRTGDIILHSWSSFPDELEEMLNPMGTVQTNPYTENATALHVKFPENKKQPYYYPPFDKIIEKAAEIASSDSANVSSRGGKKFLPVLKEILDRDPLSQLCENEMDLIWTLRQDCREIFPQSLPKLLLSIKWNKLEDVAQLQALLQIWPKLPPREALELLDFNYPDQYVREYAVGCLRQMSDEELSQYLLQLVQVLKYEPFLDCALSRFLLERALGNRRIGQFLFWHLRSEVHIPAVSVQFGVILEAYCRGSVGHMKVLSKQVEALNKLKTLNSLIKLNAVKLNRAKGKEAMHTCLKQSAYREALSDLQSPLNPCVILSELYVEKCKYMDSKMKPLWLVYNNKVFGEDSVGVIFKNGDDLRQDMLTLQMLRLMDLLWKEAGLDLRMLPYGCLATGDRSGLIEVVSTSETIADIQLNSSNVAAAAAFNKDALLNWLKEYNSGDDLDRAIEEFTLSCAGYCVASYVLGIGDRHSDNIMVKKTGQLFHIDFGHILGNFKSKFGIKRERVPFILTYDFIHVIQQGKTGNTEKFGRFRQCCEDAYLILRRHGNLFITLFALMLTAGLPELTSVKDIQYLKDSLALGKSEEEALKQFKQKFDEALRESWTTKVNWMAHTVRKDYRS
PI3K-beta, sequence (P27986 whole entry partner, species assumed): as the sequence (P27986 whole entry partner, species assumed) above

CC1(C)C=CC2=C(O1)C(=O)c1ccccc1C2=O [DAL, dehydro-alpha-lapachone]
effect on kinase PI3K-gamma (PI3K-gamma): no significant effects | effect on kinase EPHB4 (EPHB4): no significant effects | effect on kinase PKA (PKA): no significant effects | effect on kinase PI3K-beta (PI3K-beta): no significant effects | effect on kinase PAK1 (PAK1): no significant effects | effect on kinase PKC delta (PKC delta): no significant effects | effect on kinase PI3K-delta (PI3K-delta): no significant effects | effect on kinase AKT3 (AKT3): no significant effects | effect on kinase PI3K-alpha (PI3K-alpha): no significant effects | effect on kinase AKT2 (AKT2): no significant effects | effect on kinase p38 alpha (p38 alpha): no significant effects | cell adhesion properties (MDA-MB-231 cells): lost their adhesion properties | wound healing / cell motility (HUVEC): did not move and failed to close the wound; also recorded: slowed healing
